Patent publication US9469608B2, “Thrombin inhibitors” (Merck Sharp & Dohme Corp., priority 2012, dated 2016)
Where two headings read alike, the source gives them in different places.

Biological target: human α-thrombin (Homo sapiens (Human), UniProt P00734)
Assay: In vitro assay for determining proteinase inhibition (thrombin Ki)
Type: biochemical
Method: NMR determinations were made using 400 MHz field strength. Ki data was obtained according to the procedure described in Lewis, et al. Thromb. […] Reactions sensitive to moisture or air were performed under nitrogen or argon using anhydrous solvents and reagents. […] Typically, the analytical LC-MS system used consisted of a Waters ZQ platform with electrospray ionization in positive ion detection mode with an Agilent 1100 series HPLC with autosampler. The column was usually a Water Xterra MS C18, 3.0×50 mm, 5 μm. The flow rate was 1 mL/min, and the injection volume was 10 μL. UV detection was in the range 210-400 nm. […] Preparative HPLC purifications were usually performed using a mass spectrometry directed system. […] The mobile phases consisted of mixtures of acetonitrile (10-100%) in water containing 0.1% TFA. Flow rates were maintained at 50 mL/min, the injection volume was 1800 μL, and the UV detection range was 210-400 nm. Mobile phase gradients were optimized for the individual compounds. Reactions performed using microwave irradiation were normally carried out using an Emrys Optimizer manufactured by Personal Chemistry, or an Initiator manufactured by Biotage. Concentration of solutions was carried out on a rotary evaporator under reduced pressure. Flash chromatography was usually performed using a Biotage Flash Chromatography apparatus (Dyax Corp.) on silica gel ([…], 60 Å pore size) in pre-packed cartridges of the size noted. ^1H NMR spectra were acquired at 500 MHz spectrometers in CDCl3 solutions unless otherwise noted. Chemical shifts were reported in parts per million (ppm). Tetramethylsilane (TMS) was used as internal reference in CD3Cl solutions, and residual CH3OH peak or TMS was used as internal reference in CD3OD solutions. Coupling constants (J) were reported in hertz (Hz). Chiral analytical chromatography was performed on one of Chiralpak AS, Chiralpak AD, Chiralcel OD, Chiralcel IA, or Chiralcel OJ columns (250×4.6 mm) (Daicel Chemical Industries, Ltd.) with noted percentage of either ethanol in hexane (% Et/Hex) or isopropanol in heptane (% IPA/Hep) as isocratic solvent systems. Chiral preparative chromatography was conducted on one of Chiralpak AS, Chiralpak AD, Chiralcel OD, Ciralcel IA, or Chiralcel OJ columns (20×250 mm) (Daicel Chemical Industries, Ltd.) with desired isocratic solvent systems identified on chiral analytical chromatography or by supercritical fluid (SFC) conditions. Celite® (Fluka) diatomite is diatomaceous earth, and can be referred to as “celite”.
Relevant in vitro assays are referenced in Morrissette, et al., Bioorg. […] The assays were carried out at 25° C. in 0.05 M TRIS buffer pH 7.4, 0.15 M NaCl, 0.1% PEG. Trypsin assays also contained 1 mM CaC12.
Concentrations of stock solutions of Z-GPR-afc were determined from measurements of absorbance at 380 nm of the 7-amino-4-trifluoromethyl coumarin produced upon complete hydrolysis of an aliquot of the stock solution by thrombin.
Activity assays were performed by diluting a stock solution of substrate at least tenfold to a final concentration ≦0.1 Km into a solution containing enzyme or enzyme equilibrated with inhibitor. Times required to achieve equilibration between enzyme and inhibitor were determined in control experiments. Initial velocities of product formation in the absence (Vo) or presence of inhibitor (Vi) were measured. Assuming competitive inhibition, and that unity is negligible compared Km/[S], [I]/e, and [I]/e (where [S], [I], and e respectively represent the total concentrations, of substrate, inhibitor and enzyme), the equilibrium constant (Ki) for dissociation of the inhibitor from the enzyme can be obtained from the dependence of Vo/Vi on [I] shown in the following equation.

[1] = 25° C., 0.05 M TRIS buffer pH 7.4, 0.15 M NaCl, 0.1% PEG, competitive inhibition assumed

| Ki [1] | SMILES | Ki |
| --- | --- | --- |
| 77 nM | NCc1ccc(Cl)cc1CNC(=O)[C@@H]1CCCN1C(=O)C1NCc2ccccc21 (single isomer, unassigned) [Compound 23-4a, bis(2,2,2-trifluoroacetate)] |  |
| 1.1 nM | NCc1ccc(Cl)cc1CNC(=O)[C@@H]1CCCN1C(=O)C1NCc2ccccc21 (single isomer, unassigned) [Compound 23-4b, bis(2,2,2-trifluoroacetate)] |  |
| 25 nM | CC(C)(C)[C@@H](CCO)C(=O)N1CCC[C@H]1C(=O)NCc1cc(Cl)ccc1CN [Compound 1-12, (S)—N-[2-(Aminomethyl)-5-chlorobenzyl]-1-[(R)-2-(2-hydroxyethyl)-3,3-dimethylbutanoyl]pyrrolidine-2-carboxamide-2,2,2-trifluoroacetate] |  |
| 47 nM | CCOC(=O)c1ccc(C(=O)N2CCC[C@H]2C(=O)NCc2cc(Cl)ccc2CN)[nH]1 [Compound 3-5, (S)-Ethyl-5-[2-{(2-(aminomethyl)-5-chlorobenzyl)carbamoyl}-pyrrolidine-1-carbonyl]-1H-pyrrole-2-carboxylate-2,2,2-trifluoroacetate] |  |
| 27 nM | NCc1ccc(Cl)cc1CNC(=O)[C@@H]1CCCN1C(=O)c1ccc(C(F)(F)F)[nH]1 [Compound 4-5, (S)—N-{2-(Aminomethyl)-5-chlorobenzyl}-1-{5-(trifluoromethyl)-1H-pyrrole-2-carbonyl}pyrrolidine-2-carboxamide] |  |
| 21 nM | NCc1ccc(Cl)cc1CNC(=O)[C@@H]1CCCN1C(=O)c1cc(C(O)c2ccncc2)c[nH]1 (stereo partly drawn) [Compound 6-2, (2S)-N-{2-(Aminomethyl)-5-chlorobenzyl}-1-[4-{hydroxyl(pyridine-4-yl)methyl}-1H-pyrrole-2-carbonyl]pyrrolidine-2-carboxamide-bis(2,2,2-trifluoroacetate)] |  |
| 17 nM | NCc1ccc(Cl)cc1CNC(=O)[C@@H]1CCCN1C(=O)c1cc(Cc2ccncc2)c[nH]1 [Compound 7-1, (S)—N-{2-(Aminomethyl)-5-chlorobenzyl}-1-{4-(pyridin-4-ylmethyl)-1H-pyrrole-2-carbonyl}pyrrolidine-2-carboxamide-bis(2,2,2-trifluoroacetate)] |  |
| 18 nM | NCc1ccc(Cl)cc1CNC(=O)[C@@H]1CCCN1C(=O)c1cc(C(=O)c2cccnc2)c[nH]1 [Compound 8-8, (S)—N-{2-(aminomethyl)-5-chlorobenzyl}-1-(4-nicotinoyl-1H-pyrrole-2-carbonyl)pyrrolidine-2-carboxamide-bis(2,2,2-trifluoro acetate] |  |
| 13 nM | NCc1ccc(Cl)cc1CNC(=O)[C@@H]1CCCN1C(=O)c1cc(C(O)c2cccnc2)c[nH]1 (stereo partly drawn) [Compound 9-2, (2S)-N-{2-(Aminomethyl)-5-chlorobenzyl}-1-[4-{hydroxy(pyridine-3-yl)methyl}-1H-pyrrole-2-carbonyl]pyrrolidine-2-carboxamide] |  |
| 17 nM | NCc1ccc(Cl)cc1CNC(=O)[C@@H]1CCCN1C(=O)c1cc(C(=O)c2ccccn2)c[nH]1 [Compound 10-7, (S)—N-{2-(Aminomethyl)-5-chlorobenzyl}-1-(4-picolinoyl-1H-pyrrole-2-carbonyl) pyrrolidine-2-carboxamide-bis(2,2,2-trifluoroacetate)] |  |
| 9.7 nM | NCc1ccc(Cl)cc1CNC(=O)[C@@H]1CCCN1C(=O)c1cc(C(O)c2ccccn2)c[nH]1 (stereo partly drawn) [Compound 11-2, (2S)-N-{2-(Aminomethyl)-5-chlorobenzyl}-1-[4-{hydroxyl(pyridine-2-yl)methyl}-1H-pyrrole-2-carbonyl]pyrrolidine-2-carboxamide] |  |
|  | NCc1ccc(Cl)cc1CNC(=O)[C@@H]1CCCN1C(=O)c1cc(-c2ccncc2)c[nH]1 [Compound 13-10, (S)—N-{2-(Aminomethyl)-5-chlorobenzyl)-1-{4-(pyridin-4-yl)-1H-pyrrole-2-carbonyl) pyrrolidine-2-carboxamide-bis(2,2,2-trifluoroacetate)] | 3.4 nM |
| 22 nM | NCc1ccc(Cl)cc1CNC(=O)[C@@H]1CCCN1C(=O)c1cc(-c2cccnc2)c[nH]1 [Compound 14-5, (S)—N-{2-(Aminomethyl)-5-chlorobenzyl}-1-{4-(pyridin-3-yl)-1H-pyrrole-2-carbonyl}pyrrolidine-2-carboxamide bis(2,2,2-trifluoroacetate)] |  |
| 22 nM | NCc1ccc(Cl)cc1CNC(=O)[C@@H]1CCCN1C(=O)c1cc(-c2ccccn2)c[nH]1 [Compound 15-8, (S)—N-[{2-(Aminomethyl)-5-chlorobenzyl}-1-{4-(pyridin-2-yl)-1H-pyrrole-2-carbonyl}]pyrrolidine-2-carboxamide bis (2,2,2-trifluoroacetate)] |  |
| 3500 nM | CC(C)(C)[C@@H](O)C(=O)N1CCC[C@H]1C(=O)NCc1cc(Cl)ccc1CO [Compound 17-5, (S)—N-{5-Chloro-2-(hydroxymethyl)benzyl}-1-{(R)-2-hydroxy-3,3-dimethylbutanoyl}pyrrolidine-2-carboxamide] |  |
|  | NCc1ccc(Cl)cc1CNC(=O)[C@@H]1CCCN1C(=O)C1(O)CCc2ncccc21 (stereo partly drawn) [Compound 19-4, (2S)-N-{2-(Aminomethyl)-5-chlorobenzyl}-1-(5-hydroxy-6,7-dihydro-5H-cyclopenta[b]pyridine-5-carbonyl)pyrrolidine-2-carboxamide-2,2,2-trifluoroacetate] | 49 nM |
| 15 nM | NCc1ccc(Cl)cc1CNC(=O)[C@@H]1CCCN1C(=O)C1OCc2ccccc21 (stereo partly drawn) [Compound 21-6, (2S)-N-{2-(Aminomethyl)-5-chlorobenzyl}-1-(1,3-dihydroisobenzofuran-1-carbonyl)pyrrolidine-2-carboxamide-2,2,2-trifluoroacetate] |  |
| 400 nM | NCc1ccc(Cl)cc1CNC(=O)[C@@H]1CCCN1C(=O)C1c2ccccc2CS1(=O)=O (stereo partly drawn) [Compound 22-10, (2S)-N-{2-(Aminomethyl)-5-chlorobenzyl}-1-(2,2-dioxido-1,3-dihydrobenzo[a]thiophene-1-carbonyl)pyrrolidine-2-carboxamide-2,2,2-trifluoroacetate-2,2,2-trifluoroacetate] |  |
| 9.2 nM | NCc1ccc(Cl)cc1CNC(=O)[C@@H]1CCCN1C(=O)C1COc2ccccc21 (stereo partly drawn) [Compound 24-8, (2S)-N-{2-(Aminomethyl)-5-chlorobenzyl}-1-(2,3-dihydrobenzofuran-3-carbonyl)pyrrolidine-2-carboxamide-2,2,2-trifluoroacetate] |  |
|  | NCc1ccc(Cl)cc1CNC(=O)[C@@H]1CCCN1C(=O)C1CNc2ccccc21 (stereo partly drawn) [Compound 25-5, (2S)-N-{2-(Aminomethyl)-5-chlorobenzyl}-1-(indoline-3-carbonyl)pyrrolidine-2-carboxamide bis(2,2,2-trifluoroacetate)] | 59 nM |
|  | NCc1ccc(Cl)cc1CNC(=O)[C@@H]1CCN1C(=O)C1(O)CCc2ncccc21 (stereo partly drawn) [Compound 26-12, (2S)-N-{2-(Aminomethyl)-5-chlorobenzyl}-1-(5-hydroxy-6,7-dihydro-5H-cyclopenta[b]pyridine-5-carbonyl)azetidine-2-carboxamide bis(2,2,2-trifluoroacetate)] | 325 nM |

| SMILES | Ki [1] | Ki |
| --- | --- | --- |
| NCc1ccc(Cl)cc1CNC(=O)[C@@H]1CCCN1C(=O)C1(O)CCc2cccnc21 (stereo partly drawn) [Compound 20-8, (2S)-N-(2-(Aminomethyl)-5-chlorobenzyl)-1-(7-hydroxy-6,7-dihydro-5H-cyclopenta[b]pyridine-7-carbonyl)pyrrolidine-2-carboxamide-bis(2,2,2-trifluoroacetate)] | 7.7 nM |  |
| NCc1ccc(Cl)cc1CNC(=O)[C@@H]1CCCN1C(=O)C1(O)CCc2cnccc21 (stereo partly drawn) [Compound 27-9] | 20 nM |  |
| NCc1ccc(Cl)cc1CNC(=O)[C@@H]1CCCN1C(=O)C1(O)CCc2ccncc21 (stereo partly drawn) [Compound 28-6, (2S)-N-{2-(aminomethyl)-5-chlorobenzyl}-1-(7-hydroxy-6,7-dihydro-5H-cyclopenta[c]pyridine-7-carbonyl)pyrrolidine-2-carboxamide bis (2,2,2-trifluoroacetate)] | 16 nM |  |
